Data from publication PMC6969166, “The molecular basis of pyrazinamide activity on Mycobacterium tuberculosis PanD” (Nature Communications, 2020).
“And” between values parts separate entries of the source, which are not always exact repeats. Identical values can stand only once. “Also recorded” adds a separate entry of the source. Like-named read-outs stand apart in the source and are kept apart here.

Legend:
Mtb PanD [1] = target: T1, Mtb PanD (Mycobacterium tuberculosis, UniProt P9WIL3); experiment: biochemical; format: biochemical; conditions: for remaining activity at 312.5 µM / remaining activity at 625 µM / remaining activity at 1250 µM / remaining activity at 2500 µM / remaining activity at 5000 µM / remaining activity at 10000 µM / remaining activity at 20000 µM: read-out: Fractional Activity
T1 construct: The active protein consists of a β chain (Met1-Gly24) and an α chain (Pyr25 to ILE115); we observed the processed active enzyme after cleavage between Gly24 and Ser25; inferred from the pET21c(+) vector and HisTrap purification); made in house; host or cells: Escherichia coli BL21(DE3)

Mtb PanD [2] = target: T1, Mtb PanD; experiment: Isothermal titration calorimetry, wild type; format: binding; conditions: for ΔH / ΔS: mean
Experimental: ITC experiments were performed using a MicroCal iTC200 (GE). Both protein and ligands were in a buffer of 100 mM Tris, pH 7.5. The protein concentration in the cell was 0.5 mM, and the ligand concentration was 20 mM. The titration was performed at 20 °C. The data were analyzed with the Origin 7.0 software and fitted with a single-site binding model.

PanD = system: PanD; parameters: method as in PMID 23029336; conditions: cited from earlier work
Mtb cultures = conditions: cited from earlier work

T1 sequence (P9WIL3 1-24): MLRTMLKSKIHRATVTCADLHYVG
T1 sequence (P9WIL3 25-139): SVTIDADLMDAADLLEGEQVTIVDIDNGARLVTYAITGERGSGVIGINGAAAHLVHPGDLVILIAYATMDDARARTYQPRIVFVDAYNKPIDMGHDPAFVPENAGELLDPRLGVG

| SMILES | remaining activity at 312.5 µM (Mtb PanD [1]; compound conc 0.3125 mM) | remaining activity at 625 µM (Mtb PanD [1]; compound conc 0.625 mM) | remaining activity at 1250 µM (Mtb PanD [1]; compound conc 1.25 mM) | remaining activity at 2500 µM (Mtb PanD [1]; compound conc 2.5 mM) | remaining activity at 5000 µM (Mtb PanD [1]; compound conc 5 mM) | remaining activity at 10000 µM (Mtb PanD [1]; compound conc 10 mM) | remaining activity at 20000 µM (Mtb PanD [1]; compound conc 20 mM) | inhibition of Mtb PanD (Mtb PanD [1]) | other results |
| --- | --- | --- | --- | --- | --- | --- | --- | --- | --- |
| O=C(O)c1cnccn1 [POA, pyrazinoic acid] | 81.2% | 66.4% | 52.9% | 34.8% | 21.6% | 13.4% | 7.44% |  | mode of inhibition (Mtb PanD [1]): competitive with aspartate; ΔH (Mtb PanD [2]; ITC, 20 °C, 100 mM Tris pH 7.5): -4200 (200) cal mol^−1; ΔS (Mtb PanD [2]; ITC, 20 °C, 100 mM Tris pH 7.5): 0.1 (0.7) cal mol^−1 deg^−1 |
| O=C(O)C(O)C(O)C(=O)O (stereo not shown) [tartrate] |  |  |  |  |  |  |  |  | inhibitor of the enzyme (PanD): known inhibitor |
| N[C@@H](CC(=O)O)C(=O)O [aspartate, L-aspartate] |  |  |  |  |  |  |  |  | Km (Mtb PanD [1]): 1080 µM |
| O=C(O)c1cncc(Cl)n1 [6-Cl-POA, 6-chloropyrazinoic acid] | 81.8% | 69.3% | 51.7% | 35% | 22.9% | 19.8% | 8.91% | inhibitor of PanD | Ki (Mtb PanD [1]): 1000 µM; mode of inhibition (Mtb PanD [1]): competitive; Kd (Mtb PanD [2]; ITC, 20 °C, 100 mM Tris pH 7.5, single-site model, mean of separate experiments): 1090 µM; ΔH (Mtb PanD [2]; ITC, 20 °C, 100 mM Tris pH 7.5): −3300 (100) cal mol^−1; ΔS (Mtb PanD [2]; ITC, 20 °C, 100 mM Tris pH 7.5): 2.2 (0.5) cal mol^−1 deg^−1; Kd (Mtb PanD [2]; ITC, wt, single experiments): 1090 µM and 1140 µM and 1050 µM; ΔS (cal/mol /deg) (Mtb PanD [2]; ITC, wt, single experiments): 2.27 cal/mol /deg and 1.7 cal/mol /deg and 2.71 cal/mol /deg |
| NC(=O)c1cnccn1 [PZA, pyrazinamide] | 104% | 105% | 101% | 104% | 101% | 98.7% | 91.5% | lack of inhibitory activity; also recorded: None of these compounds inhibited | minimal inhibitory concentration (Mtb cultures; mildly acidic (<pH6), ref 2 (peer review file list)): 0.4-1.6 mM and 50 – 200 µg/ml; minimum inhibitory concentrations (Mtb cultures; mildly acidic pH): 400 to 1600 µM; activity against Mtb cultures (Mtb cultures; normal media): not active |
| O=C(O)c1cnc(Cl)cn1 [5-Cl-POA] | 92.8% | 89.8% | 80.2% | 67.7% | 52.9% | 51.6% | 44.3% | no inhibition |  |
| O=C(O)c1cccnc1 [NA, nicotinic acid] |  |  |  |  |  |  |  | lack of inhibitory activity; also recorded: None of these compounds inhibited | remaining activity at 312.5 µM (Mtb PanD [1]): 101%; remaining activity at 625 µM (Mtb PanD [1]): 98.1%; remaining activity at 1250 µM (Mtb PanD [1]): 96.6%; remaining activity at 2500 µM (Mtb PanD [1]): 90.2%; remaining activity at 5000 µM (Mtb PanD [1]): 87.2%; remaining activity at 10000 µM (Mtb PanD [1]): 82.2%; remaining activity at 20000 µM (Mtb PanD [1]): 61.4%; binding in ITC (Mtb PanD [2]; 100 mM Tris pH 7.5): no binding |
